System: pea plants cv. 'Carneval'
Test: Growth chamber experiment 2, pea 'Carneval' sprayed with 4-ME-IAA: peduncle/pedicel growth and seed yield, with or without heat stress (Tables P3-P12)
Assay type: in vivo, Pisum sativum L.
Procedure: For growth chamber experiment, seeds of ‘Carneval’ were planted at an approximate depth of 2.5 cm in 3-L plastic pots (4 seeds per pot and thinned to 2 plants per pot after approximately 2 weeks) in 1:1 Sunshine #4 potting mix (Sun Gro Horticulture, Vancouver, Canada) and sand. The experiment was arranged in a completely randomized design and grown at the University of Alberta in a growth chamber set at 19° C./17° C. (day/night) with a 16/8-h photoperiod under cool-white fluorescent lights (54W/835/HO high fluorescent bulbs, Phillips, Holland; 350 μE m^2 s^−2). For the heat stress treatment, plants were placed in a separate growth chamber with a 16/8-h photoperiod under cool-white fluorescent lights (F54/15/835/HO high fluorescent bulbs, Phillips, Holland) for 4 days where the temperature was cycled over a 24 hr period as follows: 33° C. air temperature for 6 hours per day (between 11:00 and 17:00 hrs) for 4 days during the light cycle; the remainder of the light cycle was maintained at a 22° C. air temperature; the dark cycle was maintained at 19° C. After the 4 day heat treatment, the plants were returned to the same growth chamber they were originally grown in, where they were taken to maturity.
For experiment 2, aqueous 4-methyl-indole-3-acetic acid (4-ME-IAA) solutions at 1×10^−7, 1×10^−6, 1×10^−5, or 1×10^−4 M in 0.1% (v/v) Tween 80 or aqueous 0.1% (v/v) Tween 80 (control) were applied as a spray to the entire plant to cover when the first flowering node of the main stem was near or at anthesis. In addition to the application at the timing cited above, one application of 4-ME-IAA at 1×10^−6 M or 1×10^−5 M was made when the floral buds were tightly clustered inside the stipule leaves at the stem apex (floral buds not visible outside of stipule leaves; designated the ‘Early’ treatment). In the heat stress treatment, the hormone or control treatment application was completed 16 hrs prior to the initiation of the first heat-stress cycle. The length and diameter (measured mid-length) of the lower and upper peduncles and pedicels of the inflorescence with two pods (or the lower peduncle and pedicel if a single pod node) at the first, second, third and fourth flowering nodes of the main stem of pea plants were determined for hormone-treated and control plants. Standard error of the mean (SE) was calculated for the means of all data for a measure of statistical significance in comparing treatment means.

[1] = 1×10^−4 M, applied near or at anthesis, no heat stress
[2] = 1×10^−4 M, first flowering node, heat stress (33° C. 6 h/day, 4 days)
[3] = 1×10^−4 M, first flowering node, no heat stress
[4] = 1×10^−4 M, fourth flowering node, heat stress (33° C. 6 h/day, 4 days)
[5] = 1×10^−4 M, fourth flowering node, no heat stress
[6] = 1×10^−4 M, heat stress (33° C. 6 h/day, 4 days)
[7] = 1×10^−4 M, second flowering node, heat stress (33° C. 6 h/day, 4 days)
[8] = 1×10^−4 M, second flowering node, no heat stress
[9] = 1×10^−4 M, third flowering node, heat stress (33° C. 6 h/day, 4 days)
[10] = 1×10^−4 M, third flowering node, no heat stress
[11] = 1×10^−5 M, applied near or at anthesis, no heat stress
[12] = 1×10^−5 M, first flowering node, heat stress (33° C. 6 h/day, 4 days)
[13] = 1×10^−5 M, first flowering node, no heat stress
[14] = 1×10^−5 M, fourth flowering node, heat stress (33° C. 6 h/day, 4 days)
[15] = 1×10^−5 M, fourth flowering node, no heat stress
[16] = 1×10^−5 M, heat stress (33° C. 6 h/day, 4 days)
[17] = 1×10^−5 M, second flowering node, heat stress (33° C. 6 h/day, 4 days)
[18] = 1×10^−5 M, second flowering node, no heat stress
[19] = 1×10^−5 M, third flowering node, heat stress (33° C. 6 h/day, 4 days)
[20] = 1×10^−5 M, third flowering node, no heat stress
[21] = 1×10^−6 M, applied near or at anthesis, no heat stress
[22] = 1×10^−6 M, first flowering node, heat stress (33° C. 6 h/day, 4 days)

SMILES: Cc1cccc2[nH]cc(CC(=O)O)c12 [4-ME-IAA, 4-methyl-indole-3-acetic acid]
- Ratio of seed number on main stem to lateral stems [1]: 4.6 ± 1.1
- Seed number per plant [1]: 56.7 ± 3.6
- Seed weight per plant [1]: 14.0 ± 1.0 g
- Weight per seed [1]: 0.247 ± 0.006 g
- increase in seed yield (seed weight per plant) vs control [1]: 61%
- Lower Pedicel Length [2]: 7.63 ± 0.46 mm
- Lower Pedicel diameter [2]: 1.58 ± 0.09 mm
- Lower Peduncle Length [2]: 52.22 ± 4.26 mm
- Lower Peduncle diameter [2]: 1.71 ± 0.06 mm
- Upper Pedicel Length [2]: 7.00 ± 0.45 mm
- Upper Pedicel diameter [2]: 1.6 ± 0.07 mm
- Upper Peduncle Length [2]: 17.00 ± 1.37 mm
- Upper Peduncle diameter [2]: 1.44 ± 0.07 mm
- Lower Pedicel Length [3]: 8.50 ± 0.37 mm
- Lower Pedicel diameter [3]: 1.73 ± 0.05 mm
- Lower Peduncle Length [3]: 69.70 ± 4.21 mm
- Lower Peduncle diameter [3]: 1.73 ± 0.07 mm
- Upper Pedicel Length [3]: 8.10 ± 0.43 mm
- Upper Pedicel diameter [3]: 1.54 ± 0.05 mm
- Upper Peduncle Length [3]: 15.20 ± 1.36 mm
- Upper Peduncle diameter [3]: 1.44 ± 0.03 mm
- Lower Pedicel Length [4]: 7.00 ± 0.41 mm
- Lower Pedicel diameter [4]: 1.45 ± 0.11 mm
- Lower Peduncle Length [4]: 25.50 ± 3.97 mm
- Lower Peduncle diameter [4]: 1.38 ± 0.10 mm
- Upper Pedicel Length [4]: 7.00 ± 0.0 mm
- Upper Pedicel diameter [4]: 1.33 ± 0.15 mm
- Upper Peduncle Length [4]: 14.50 ± 0.50 mm
- Upper Peduncle diameter [4]: 1.17 ± 0.02 mm
- Lower Pedicel Length [5]: 8.44 ± 0.23 mm
- Lower Pedicel diameter [5]: 1.42 ± 0.05 mm
- Lower Peduncle Length [5]: 41.00 ± 3.24 mm
- Lower Peduncle diameter [5]: 1.36 ± 0.06 mm
- Upper Pedicel Length [5]: 8.22 ± 0.14 mm
- Upper Pedicel diameter [5]: 1.36 ± 0.06 mm
- Upper Peduncle Length [5]: 16.67 ± 0.39 mm
- Upper Peduncle diameter [5]: 1.17 ± 0.04 mm
- Ratio of seed number on main stem to lateral stems [6]: 2.1 ± 0.4
- Seed number plant [6]: 55.6 ± 6.2
- Seed weight per per plant [6]: 14.5 ± 1.7 g
- Weight per seed [6]: 0.261 ± 0.009 g
- Lower Pedicel Length [7]: 7.56 ± 0.38 mm
- Lower Pedicel diameter [7]: 1.56 ± 0.06 mm
- Lower Peduncle Length [7]: 40.33 ± 4.51 mm
- Lower Peduncle diameter [7]: 1.63 ± 0.04 mm
- Upper Pedicel Length [7]: 7.25 ± 0.25 mm
- Upper Pedicel diameter [7]: 1.54 ± 0.05 mm
- Upper Peduncle Length [7]: 16.88 ± 1.52 mm
- Upper Peduncle diameter [7]: 1.29 ± 0.04 mm
- Lower Pedicel Length [8]: 8.30 ± 0.47 mm
- Lower Pedicel diameter [8]: 1.65 ± 0.05 mm
- Lower Peduncle Length [8]: 55.60 ± 4.08 mm
- Lower Peduncle diameter [8]: 1.67 ± 0.06 mm
- Upper Pedicel Length [8]: 8.3 ± 0.47 mm
- Upper Pedicel diameter [8]: 1.55 ± 0.05 mm
- Upper Peduncle Length [8]: 18.40 ± 0.72 mm
- Upper Peduncle diameter [8]: 1.38 ± 0.05 mm
- Lower Pedicel Length [9]: 7.33 ± 0.29 mm
- Lower Pedicel diameter [9]: 1.55 ± 0.08 mm
- Lower Peduncle Length [9]: 28.22 ± 3.07 mm
- Lower Peduncle diameter [9]: 1.53 ± 0.06 mm
- Upper Pedicel Length [9]: 7.50 ± 0.29 mm
- Upper Pedicel diameter [9]: 1.49 ± 0.05 mm
- Upper Peduncle Length [9]: 14.00 ± 1.00 mm
- Upper Peduncle diameter [9]: 1.29 ± 0.03 mm
- Lower Pedicel Length [10]: 8.20 ± 0.33 mm
- Lower Pedicel diameter [10]: 1.49 ± 0.06 mm
- Lower Peduncle Length [10]: 49.90 ± 4.2 mm
- Lower Peduncle diameter [10]: 1.53 ± 0.05 mm
- Upper Pedicel Length [10]: 8.10 ± 0.28 mm
- Upper Pedicel diameter [10]: 1.40 ± 0.06 mm
- Upper Peduncle Length [10]: 19.10 ± 0.75 mm
- Upper Peduncle diameter [10]: 1.21 ± 0.04 mm
- Ratio of seed number on main stem to lateral stems [11]: 3.3 ± 0.6
- Seed number per plant [11]: 60.3 ± 3.2
- Seed weight per plant [11]: 14.0 ± 0.9 g
- Weight per seed [11]: 0.230 ± 0.004 g
- increase in seed yield (seed weight per plant) vs control [11]: 61%
- Lower Pedicel Length [12]: 9.11 ± 0.26 mm
- Lower Pedicel diameter [12]: 1.59 ± 0.06 mm
- Lower Peduncle Length [12]: 61.33 ± 4.13 mm
- Lower Peduncle diameter [12]: 1.60 ± 0.08 mm
- Upper Pedicel Length [12]: 8.83 ± 0.17 mm
- Upper Pedicel diameter [12]: 1.56 ± 0.08 mm
- Upper Peduncle Length [12]: 16.00 ± 1.46 mm
- Upper Peduncle diameter [12]: 1.33 ± 0.04 mm
- Lower Pedicel Length [13]: 8.70 ± 0.45 mm
- Lower Pedicel diameter [13]: 1.58 ± 0.04 mm
- Lower Peduncle Length [13]: 63.10 ± 4.95 mm
- Lower Peduncle diameter [13]: 1.53 ± 0.05 mm
- Upper Pedicel Length [13]: 8.70 ± 0.37 mm
- Upper Pedicel diameter [13]: 1.49 ± 0.03 mm
- Upper Peduncle Length [13]: 19.90 ± 1.12 mm
- Upper Peduncle diameter [13]: 1.31 ± 0.03 mm
- Lower Pedicel Length [14]: 7.17 ± 0.48 mm
- Lower Pedicel diameter [14]: 1.41 ± 0.07 mm
- Lower Peduncle Length [14]: 29.50 ± 2.63 mm
- Lower Peduncle diameter [14]: 1.39 ± 0.02 mm
- Lower Pedicel Length [15]: 9.00 ± 0.44 mm
- Lower Pedicel diameter [15]: 1.22 ± 0.09 mm
- Lower Peduncle Length [15]: 40.22 ± 3.64 mm
- Lower Peduncle diameter [15]: 1.41 ± 0.05 mm
- Upper Pedicel Length [15]: 8.88 ± 0.44 mm
- Upper Pedicel diameter [15]: 1.11 ± 0.10 mm
- Upper Peduncle Length [15]: 18.13 ± 0.88 mm
- Upper Peduncle diameter [15]: 1.03 ± 0.08 mm
- Ratio of seed number on main stem to lateral stems [16]: 1.1 ± 0.1
- Seed number plant [16]: 50.6 ± 5.0
- Seed weight per per plant [16]: 13.7 ± 1.2 g
- Weight per seed [16]: 0.274 ± 0.005 g
- Lower Pedicel Length [17]: 8.11 ± 0.11 mm
- Lower Pedicel diameter [17]: 1.68 ± 0.07 mm
- Lower Peduncle Length [17]: 47.11 ± 5.35 mm
- Lower Peduncle diameter [17]: 1.58 ± 0.05 mm
- Upper Pedicel Length [17]: 8.00 ± 0.29 mm
- Upper Pedicel diameter [17]: 1.55 ± 0.06 mm
- Upper Peduncle Length [17]: 16.33 ± 0.82 mm
- Upper Peduncle diameter [17]: 1.32 ± 0.04 mm
- Lower Pedicel Length [18]: 8.80 ± 0.33 mm
- Lower Pedicel diameter [18]: 1.50 ± 0.04 mm
- Lower Peduncle Length [18]: 53.50 ± 5.01 mm
- Lower Peduncle diameter [18]: 1.45 ± 0.04 mm
- Upper Pedicel Length [18]: 8.60 ± 0.37 mm
- Upper Pedicel diameter [18]: 1.39 ± 0.04 mm
- Upper Peduncle Length [18]: 18.10 ± 0.74 mm
- Upper Peduncle diameter [18]: 1.16 ± 0.03 mm
- Lower Pedicel Length [19]: 7.67 ± 0.37 mm
- Lower Pedicel diameter [19]: 1.58 ± 0.06 mm
- Lower Peduncle Length [19]: 39.22 ± 3.35 mm
- Lower Peduncle diameter [19]: 1.52 ± 0.05 mm
- Upper Pedicel Length [19]: 7.00 ± 0.32 mm
- Upper Pedicel diameter [19]: 1.56 ± 0.08 mm
- Upper Peduncle Length [19]: 16.20 ± 1.74 mm
- Upper Peduncle diameter [19]: 1.38 ± 0.09 mm
- Lower Pedicel Length [20]: 8.56 ± 0.41 mm
- Lower Pedicel diameter [20]: 1.35 ± 0.04 mm
- Lower Peduncle Length [20]: 47.11 ± 4.73 mm
- Lower Peduncle diameter [20]: 1.53 ± 0.03 mm
- Upper Pedicel Length [20]: 8.67 ± 0.29 mm
- Upper Pedicel diameter [20]: 1.25 ± 0.05 mm
- Upper Peduncle Length [20]: 20.44 ± 1.00 mm
- Upper Peduncle diameter [20]: 1.13 ± 0.05 mm
- Ratio of seed number on main stem to lateral stems [21]: 2.9 ± 0.6
- Seed number per plant [21]: 63.3 ± 4.6
- Seed weight per plant [21]: 14.9 ± 0.9 g
- Weight per seed [21]: 0.238 ± 0.006 g
- increase in seed yield (seed weight per plant) vs control [21]: 71%
- Lower Pedicel Length [22]: 8.80 ± 0.29 mm
- Lower Pedicel diameter [22]: 1.47 ± 0.05 mm
- Lower Peduncle Length [22]: 60.40 ± 5.23 mm

Reference: patent publication US20140106967A1, “AUXIN PLANT GROWTH REGULATORS” (The Governors of The University of Alberta, priority 2011, published 2014)
